Consider 14 compounds from ChEMBL document CHEMBL5120980, “Stereoisomers of an Aryl Pyrazole Glucocorticoid Receptor Agonist Scaffold Elicit Differing Anti-inflammatory Responses” (ACS Med Chem Lett, 2022).

In assay [1] the target is T1, Glucocorticoid receptor (Rattus norvegicus, UniProt P06536).
T1 sequence (P06536 whole entry): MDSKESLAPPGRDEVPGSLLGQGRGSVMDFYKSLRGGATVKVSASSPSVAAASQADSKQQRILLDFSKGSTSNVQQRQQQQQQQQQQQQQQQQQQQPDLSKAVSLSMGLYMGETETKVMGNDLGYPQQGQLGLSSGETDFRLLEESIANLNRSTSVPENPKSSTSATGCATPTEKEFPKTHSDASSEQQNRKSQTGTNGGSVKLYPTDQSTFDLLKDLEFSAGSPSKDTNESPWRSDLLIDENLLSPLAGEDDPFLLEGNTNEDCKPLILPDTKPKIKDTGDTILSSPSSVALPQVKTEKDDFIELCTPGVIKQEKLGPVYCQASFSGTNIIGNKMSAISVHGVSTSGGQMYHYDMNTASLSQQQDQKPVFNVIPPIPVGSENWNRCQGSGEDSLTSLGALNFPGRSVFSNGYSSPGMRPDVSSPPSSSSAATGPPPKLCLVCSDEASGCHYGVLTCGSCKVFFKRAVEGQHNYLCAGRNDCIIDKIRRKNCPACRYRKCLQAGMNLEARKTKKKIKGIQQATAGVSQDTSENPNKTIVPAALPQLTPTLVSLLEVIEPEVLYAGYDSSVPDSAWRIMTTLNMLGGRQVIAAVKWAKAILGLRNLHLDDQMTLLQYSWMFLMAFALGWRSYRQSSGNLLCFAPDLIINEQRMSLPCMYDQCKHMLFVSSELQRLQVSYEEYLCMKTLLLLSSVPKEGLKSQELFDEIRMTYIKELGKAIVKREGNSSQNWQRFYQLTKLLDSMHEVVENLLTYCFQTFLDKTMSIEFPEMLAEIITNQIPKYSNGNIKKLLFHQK
As to the kind of experiment: Agonist activity at glucocorticoid receptor in rat INS-1 832/13 cells transfected with CCL2-promoter luciferase plasmid construct assessed as reduction in IL-1 beta induced inflammation by luciferase reporter gene assay. Format: cell-based. In general terms: A reporter such as luciferase makes a cellular process visible.

Assay [2] addresses T1, Glucocorticoid receptor. As to the kind of experiment: Agonist activity at glucocorticoid receptor in rat INS-1 832/13 cells transfected with 3XGRE-promoter luciferase plasmid construct assessed as induction of receptor transactivation by luciferase reporter gene assay. Format: cell-based.

Each structure is given as a SMILES string.

Regarding `C[C@H](O)[C@H]1CCCC2=Cc3c(cnn3-c3ccc(F)cc3)C[C@@]21C`, the half-maximal inhibitory concentration (IC50) at Glucocorticoid receptor [1] was 63.1 nM. Also, on Glucocorticoid receptor [2], the concentration giving a half-maximal response (EC50) is 2510 nM.

With `C[C@]12Cc3cnn(-c4ccc(F)cc4)c3C=C1CCC[C@@H]2[C@@H](O)C1CCCC1`, the IC50 at Glucocorticoid receptor [1] is 398 nM. In addition, the EC50 on Glucocorticoid receptor [2] is 3160 nM.

`C[C@]12Cc3cnn(-c4ccc(F)cc4)c3C=C1CCC[C@@H]2[C@H](O)C1CC1`: the IC50 on Glucocorticoid receptor [1] was 2000 nM. For the same compound, the EC50 at Glucocorticoid receptor [2] is 0.501 nM.

Consider `CC(C)[C@H](O)[C@H]1CCCC2=Cc3c(cnn3-c3ccc(F)cc3)C[C@@]21C`, for which, on Glucocorticoid receptor [1], the concentration for half-maximal inhibition (IC50) was 0.631 nM. In addition, the half-maximal effective concentration (EC50) at Glucocorticoid receptor [2] is 1580 nM.

Take `C[C@]12Cc3cnn(-c4ccc(F)cc4)c3C=C1CCC[C@@H]2[C@H](O)c1c(F)c(F)c(F)c(F)c1F`: the half-maximal inhibitory concentration (IC50) on Glucocorticoid receptor [1] was 25.1 nM. On Glucocorticoid receptor [2], the EC50 was 2000 nM.

As for `C[C@]12Cc3cnn(-c4ccc(F)cc4)c3C=C1CCC[C@@H]2[C@H](O)c1ccccc1`, the IC50 on Glucocorticoid receptor [1] is 3980 nM. Besides, on Glucocorticoid receptor [2], the EC50 was 25.1 nM.

Regarding `C[C@]12Cc3cnn(-c4ccc(F)cc4)c3C=C1CCC[C@@H]2[C@@H](O)c1c(F)c(F)c(F)c(F)c1F`, on Glucocorticoid receptor [1], the concentration for half-maximal inhibition (IC50) is 31.6 nM. Besides, the EC50 on Glucocorticoid receptor [2] is 251 nM.

Consider `C[C@@H](O)[C@H]1CCCC2=Cc3c(cnn3-c3ccc(F)cc3)C[C@@]21C`, for which, on Glucocorticoid receptor [1], the IC50 is 0.316 nM. At Glucocorticoid receptor [2], the EC50 was 31.6 nM.

For `CC[C@H](O)[C@H]1CCCC2=Cc3c(cnn3-c3ccc(F)cc3)C[C@@]21C`, the concentration for half-maximal inhibition (IC50) on Glucocorticoid receptor [1] is 20 nM. Further, on Glucocorticoid receptor [2], the 50% effective concentration (EC50) was 10000 nM.

Turning to `CC(C)[C@@H](O)[C@H]1CCCC2=Cc3c(cnn3-c3ccc(F)cc3)C[C@@]21C`, the IC50 on Glucocorticoid receptor [1] is 158 nM. Also, the EC50 on Glucocorticoid receptor [2] was 1580 nM.

For the compound `C[C@]12Cc3cnn(-c4ccc(F)cc4)c3C=C1CCC[C@@H]2CO`, at Glucocorticoid receptor [1], the IC50 is 5.01 nM. Further, the EC50 on Glucocorticoid receptor [2] was 31.6 nM.

For the compound `CC[C@@H](O)[C@H]1CCCC2=Cc3c(cnn3-c3ccc(F)cc3)C[C@@]21C`, the concentration for half-maximal inhibition (IC50) on Glucocorticoid receptor [1] was 15.8 nM. At Glucocorticoid receptor [2], the EC50 is 2510 nM.

Take `C[C@]12Cc3cnn(-c4ccc(F)cc4)c3C=C1CCC[C@@H]2[C@@H](O)C1CC1`: the half-inhibitory concentration (IC50) at Glucocorticoid receptor [1] was 31.6 nM. Moreover, the EC50 at Glucocorticoid receptor [2] is 1000 nM.

As to `C[C@]12Cc3cnn(-c4ccc(F)cc4)c3C=C1CCC[C@@H]2[C@@H](O)c1ccccc1`, the IC50 on Glucocorticoid receptor [1] is 20 nM. For the same compound, the concentration for a half-maximal effect (EC50) on Glucocorticoid receptor [2] is 63.1 nM.

By IC50 is commonly meant the concentration that inhibits the measured activity by half. As usually defined, the EC50 is the concentration giving half of the maximal effect.
